From patent publication US9145401B2, “Amide derivative and use of the same as stability index of a luliconazole pharmaceutical formulation” (POLA PHARMA INC., priority 2012, dated 2015) come the findings set out here.

The test system of the assay is fungi. Briefly: Antifungal activity of the amide form.

For `NC(=O)/C(=C1/SCC(c2ccc(Cl)cc2Cl)S1)n1ccnc1` (single isomer, unassigned) [amide form, [R-(E)]-α-[4-(2,4-dichlorophenyl)-1,3-dithiolan-2-ylidene]-1H-imidazole-1-acetamide], the antifungal activity entry was “low”.
